Experiment [1] concerns PW17Ext (DNA, G4) GAGGAGGAGGAGGAGAGGGTAGGGCGGGTTGGG
Nature of the experiment: fluorescence melting. The settings on record: 150 mM Na+, 10 mM K+; 50 mM Tris, pH 7.4; complex more stable than without K+.

Experiment [2] relates to Apt5 (DNA, aptamer) GCGTAGATCGAGGCTATTAGGAGGTGGGATGCGTCAGGGC
Kind of experiment: fluorescence enhancement. The settings on record: 150 mM Na+; 61x enhancement; 1 µM DNA, 5 µM ThT; 50 mM Tris, pH 7.4.

The test system of experiment [3] is Apt1 (DNA, aptamer) TCGCGTGTGCAGAGGCGAGTAGGTGGGAGATCTGTCTGGG
Kind of experiment: fluorescence enhancement. The settings on record: 150 mM Na+; 9x enhancement; 1 µM DNA, 5 µM ThT; 50 mM Tris, pH 7.4.

Experiment [4] concerns Apt2 (DNA, aptamer) GACCGGAGGGGCATCAGCTGTCCGTGAGGTTGCCGCGAG
Kind of experiment: fluorescence enhancement. The conditions noted are these: 150 mM Na+; 13x enhancement; 1 µM DNA, 5 µM ThT; 50 mM Tris, pH 7.4.

For experiment [5], the system named is Apt3 (DNA, aptamer) GCACGTCCAGGACGGGGGAGCGGTGCTAGTGTCTGGCAGG
Kind of experiment: fluorescence enhancement. The conditions noted are these: 150 mM Na+; 20x enhancement; 1 µM DNA, 5 µM ThT; 50 mM Tris, pH 7.4.

The test system of experiment [6] is Apt4 (DNA, aptamer) GACCGGAGGGGCATCAGCTGTCCGTGAGGTTGCCGCGAGT
Kind of experiment: fluorescence enhancement. The settings on record: 150 mM Na+; 14x enhancement; 1 µM DNA, 5 µM ThT; 50 mM Tris, pH 7.4.

For experiment [7], the system named is Apt5.1-24 (DNA, aptamer) GCGTAGATCGAGGCTATTAGGAGG
Nature of the experiment: fluorescence enhancement. The conditions noted are these: 150 mM Na+; less fluorescent than Apt5; 1 µM DNA, 5 µM ThT; 50 mM Tris, pH 7.4.

The test system of experiment [8] is Apt5.5-28 (DNA, aptamer) AGATCGAGGCTATTAGGAGGTGGG
Nature of the experiment: fluorescence enhancement. The settings on record: 150 mM Na+; less fluorescent than Apt5; 1 µM DNA, 5 µM ThT; 50 mM Tris, pH 7.4.

For experiment [9], the system named is Apt5.13-36 (DNA, aptamer) GCTATTAGGAGGTGGGATGCGTCA
Nature of the experiment: fluorescence enhancement. The conditions noted are these: 150 mM Na+; less fluorescent than Apt5; 1 µM DNA, 5 µM ThT; 50 mM Tris, pH 7.4.

In experiment [10] the test system is Apt5.17-40 (DNA, aptamer) TTAGGAGGTGGGATGCGTCAGGGC
Kind of experiment: fluorescence enhancement. The conditions noted are these: 150 mM Na+; less fluorescent than Apt5; 1 µM DNA, 5 µM ThT; 50 mM Tris, pH 7.4.

Experiment [11] deals with ThT.2-2 (DNA, aptamer) GACGACGACACAGGATTAATCTTATTAGTCGTC
Kind of experiment: fluorescence enhancement. The settings on record: less fluorescent than Apt5.9-32; several concentrations.

Experiment [12] deals with Primer-215 (DNA, single strand) ATGACCTATGAATTGACAGAC
Nature of the experiment: fluorescence enhancement. The settings on record: no fluorescence; 5 µM ThT, 1 µM oligonucleotide; text says miR-215 (Primer-215).

The test system of experiment [13] is Apt5.9-32 (DNA, aptamer) CGAGGCTATTAGGAGGTGGGATGC
Nature of the experiment: fluorescence titration, 510 nm. The settings on record: 150 mM Na+; 50 mM Tris, pH 7.4; 1 µM ThT, aptamer 2.5-50 µM; mean of three.

With `Cc1ccc2c(c1)sc(-c1ccc(N(C)C)cc1)[n+]2C`, the binding entry in experiment [1], in experiment [2], in experiment [3], in experiment [4], in [5] and in experiment [6] was “yes” each time. Further, the binding result is reported as “weak” in experiment [7]; “weak” in [8]; “weak” in experiment [9]; “weak” in experiment [10]; “yes” in experiment [11]; “no” in experiment [12]. The dissociation constant in experiment [13] is listed as 6 ± 2 µM.

These data come from article PMC7900183 (2021).
